Experimental data as given in patent US20120064056A1, “DICHLORACETATE IN COMBINATION WITH CLINICALLY HIGH LEVELS OF CARDIOPROTECTIVE OR HEMODYNAMIC DRUGS” (THE GOVERNORS OF THE UNIVERSITY OF ALBERTA TEC Edmonton, priority 2002, published 2012).

Assays:
isolated rat hearts [1] = assay: Isolated working rat heart, aerobic perfusion: glycolysis and glucose oxidation; set-up: glycolytic rates (glycolysis) / glucose oxidation rates: unit not given here; details: normal hearts, aerobic; FIG. 2, 4, 6, 8; control 3.430±0.604; DCA 2 mM, digoxin 3 nM, diltiazem 0.8 μM, dobutamine 1 μM, metoprolol 1 μM
Protocol: (§1) Rat hearts were cannulated for isolated working heart perfusions as described in “An imbalance between glycolysis and glucose oxidation is a possible explanation for the detrimental effects of high levels of fatty acids during aerobic reperfusion of ischemic hearts.”, (J Pharmacol Exp Ther. 264:135 (1993); herein incorporated by reference. In brief, male Sprague-Dawley rats (0.3-0.35 kg) were anesthetized with pentobarbital sodium (60 mg/kg IP) and hearts were quickly excised, the aorta was cannulated and a retrograde perfusion at 37° C. was initiated at a hydrostatic pressure of 60 mm Hg. Hearts were trimmed of excess tissue, and the pulmonary artery and the opening to the left atrium were then cannulated. After 15 min of Langendorff perfusion, hearts were switched to the working mode by clamping the aortic inflow line from the Langendorff reservoir and opening the left atrial inflow line. The perfusate was delivered from an oxygenator into the left atrium at a constant preload pressure of 11 mm Hg. Perfusate was ejected from spontaneously beating hearts into a compliance chamber (containing 1 ml of air) and into the aortic outflow line. The afterload was set at a hydrostatic pressure of 80 mm Hg. All working hearts were perfused with Krebs'-Henseleit solution containing calcium 2.5 mmol/L, glucose 5.5 mmol/L, 3% bovine serum albumin (Fraction V, Boehringer Mannheim), and with 1.2 mmol/L palmitate. Palmitate was bound to the albumin as described previously (Saddik M., et al. J Biol. Chem. 267:3825-3831 (1992)). The perfusate was recirculated, and pH was adjusted to 7.4 by bubbling with a mixture containing 95% O2 and 5% CO2. For the aerobic model hearts, all tested compounds were introduced into the heart 5 minutes into the working mode following Langendorff Perfusion.
Glycolysis and glucose oxidation were measured simultaneously by perfusing hearts with [5-^3H/U-^14C] glucose (Liu H., et al. Am J Physiol. 270:H72-H80 (1996); Taegtmeyer Het al. Am J Cardiol. 80:3A-10A (1997)). The total myocardial ^3H2O production and ^14CO2 production were determined at 10 minute intervals for the entirety of the aerobic period, 60 minutes for normal hearts and 30 minutes for the global ischemia and low flow demand ischemia models. In the global ischemia model, the total myocardial ^3H2O and ^14CO2 production were determined at 20 minute intervals for the 60 minute reperfusion period. In the low flow demand ischemia model, the total myocardial ^3H2O and ^14CO2 production were determined at 10 minute intervals for the 30 minute reperfusion period. Glucose oxidation rates were determined by quantitative measurement of ^14CO2 production as described previously (Barbour R. L., et al. Biochemistr. 1923:6503-6062 (1984)).

isolated rat hearts [2] = assay: Isolated working rat heart, aerobic perfusion: cardiac function and efficiency; set-up: Cardiac Work (CO · PSP): unit not given beside the values
Protocol: as §1
Spontaneously beating hearts were used in all perfusions. Heart rate and aortic pressure were measured with a Biopac Systems Inc. blood pressure transducer connected to the aortic outflow line. Cardiac output and aortic flow were measured with Transonic T206 ultrasonic flow probes in the preload and afterload lines, respectively. Coronary flow was calculated as the difference between cardiac output and aortic flow. The O2 contents of the perfusate entering and leaving the heart were measured using YSI™ micro oxygen electrodes placed in the preload and pulmonary arterial lines, respectively. Myocardial O2 consumption (MVO2) was calculated according to the Fick principle, using coronary flow rates and the arteriovenous difference in perfusate O2 concentration. Cardiac work was calculated as the product of systolic pressure and cardiac output. Cardiac efficiency was defined as a ratio of cardiac work to MVO2.

[3] = test system: isolated rat hearts subjected to global ischemia; assay: Isolated working rat heart, global no flow ischemia and reperfusion: cardiac function and efficiency
Protocol: (§2) Hearts were trimmed of excess tissue, and the pulmonary artery and the opening to the left atrium were then cannulated. After 15 min of Langendorff perfusion, hearts were switched to the working mode by clamping the aortic inflow line from the Langendorff reservoir and opening the left atrial inflow line. The perfusate was delivered from an oxygenator into the left atrium at a constant preload pressure of 11 mm Hg. […] The afterload was set at a hydrostatic pressure of 80 mm Hg. […] Palmitate was bound to the albumin as described previously ([…]., et al. J Biol. Chem. 267:3825-3831 (1992)). […] For the aerobic model hearts, all tested compounds were introduced into the heart 5 minutes into the working mode following Langendorff Perfusion. Spontaneously beating hearts were used in all perfusions. Heart rate and aortic pressure were measured with a Biopac Systems Inc. blood pressure transducer connected to the aortic outflow line. Cardiac output and aortic flow were measured with Transonic […] ultrasonic flow probes in the preload and afterload lines, respectively. Coronary flow was calculated as the difference between cardiac output and aortic flow. […] Cardiac work was calculated as the product of systolic pressure and cardiac output. Cardiac efficiency was defined as a ratio of cardiac work to MVO2. […] All tested compounds were introduced into the perfusate five minutes prior to reperfusion.

[4] = test system: isolated rat hearts subjected to global ischemia; assay: Isolated working rat heart, global ischemia and reperfusion: glycolysis and glucose oxidation; details: FIG. 10, FIG. 16, DCA 2 mM, digoxin 3 nM, metoprolol 1 μM
Protocol: Hearts were trimmed of excess tissue, and the pulmonary artery and the opening to the left atrium were then cannulated. After 15 min of Langendorff perfusion, hearts were switched to the working mode by clamping the aortic inflow line from the Langendorff reservoir and opening the left atrial inflow line. The perfusate was delivered from an oxygenator into the left atrium at a constant preload pressure of 11 mm Hg. […] The afterload was set at a hydrostatic pressure of 80 mm Hg. […] Palmitate was bound to the albumin as described previously ([…]., et al. J Biol. Chem. 267:3825-3831 (1992)). […] For the aerobic model hearts, all tested compounds were introduced into the heart 5 minutes into the working mode following Langendorff Perfusion. […] All tested compounds were introduced into the perfusate five minutes prior to reperfusion. […] Am J Physiol. 270:[…]. Am J Cardiol. 80:3A-10A (1997)). […] In the global ischemia model, the total myocardial ^3H2O and ^14CO2 production were determined at 20 minute intervals for the 60 minute reperfusion period. […] L., et al. Biochemistr. 1923:6503-6062 (1984)).

[5] = test system: isolated rat hearts subjected to low flow demand ischemia; assay: Isolated working rat heart, low flow demand ischemia: cardiac function and efficiency; details: for Aortic Outflow / Cardiac Output / Coronary Flow / HR × PSP / Heart Rate / Peak Systolic Pressure: DCA 2 mM, diltiazem 0.8 μM, metoprolol 1 μM
Protocol: as §2, with “into initiation of aerobic perfusion.” for “prior to reperfusion.”

[6] = test system: isolated rat hearts subjected to low flow demand ischemia; assay: Isolated working rat heart, low flow demand ischemia: glycolysis and glucose oxidation; details: FIG. 22, FIG. 28
[7] = aerobically perfused, DCA 2 mM, diltiazem 0.8 μM, digoxin 3 nM, metoprolol 1 μM, dobutamine 1 μM
[8] = aerobically perfused, DCA 2 mM, diltiazem 0.8 μM, digoxin 3 nM, metoprolol 1 μM, dobutamine 1 μM, listed as digoxin
[9] = post-ischemic reperfusion, DCA 2 mM, digoxin 3 nM, metoprolol 1 μM
[10] = aerobically perfused, DCA 2 mM, diltiazem 0.8 μM, digoxin 3 nM, metoprolol 1 μM, dobutamine 1 μM, listed as diltiazem
[11] = low flow ischemia: aerobic period
[12] = low flow ischemia: ischemic period

With `C[C@H]1O[C@@H](O[C@H]2[C@@H](O)C[C@H](O[C@H]3[C@@H](O)C[C@H](O[C@H]4CC[C@@]5(C)[C@H](CC[C@@H]6[C@@H]5C[C@@H](O)[C@]5(C)[C@@H](C7=CC(=O)OC7)CC[C@]65O)C4)O[C@@H]3C)O[C@@H]2C)C[C@H](O)[C@@H]1O` [Digoxin, digoxin] the “glycolytic rates (glycolysis)” value (isolated rat hearts [1]) was 5.651±1.298, the “Aortic Outflow” value (isolated rat hearts [2]; [7]) was 31 ± 1 mL/min and the “Cardiac Output” value (isolated rat hearts [2]; [7]) was 52 ± 1 mL/min. The “Cardiac Work (CO · PSP)” value (isolated rat hearts [2]; [7]) was 67 ± 3, the “Coronary Flow” value (isolated rat hearts [2]; [7]) was 21 ± 1 mL/min and the “HR × PSP” value (isolated rat hearts [2]; [7]) was 32 ± 1 beats · min^−1 · mmHg · 10^−2. The “Heart Rate” value (isolated rat hearts [2]; [7]) was 258 ± 11 beats · min^−1, the “O2 Consumption” value (isolated rat hearts [2]; [7]) was 37 ± 3 μmolO2 · g dry wt^−1 · min^−1 and the “Peak Systolic Pressure” value (isolated rat hearts [2]; [7]) was 129 ± 4 mmHg. The “Aortic Outflow” value (isolated rat hearts [2]; [8]) was 31 ± 1 mL/min, the “Cardiac Work (CO · PSP)” value (isolated rat hearts [2]; [8]) was 67±3 and the “effect on functional parameters shown in Table 1 (heart rate, peak systolic pressure, HR×PSP), in words” value (isolated rat hearts [2]; normal hearts, aerobic, compared to control (DCA and dobutamine: compared to dobutamine alone)) was “no significant effect”. The “Aortic Outflow” value [3, 9] was 14 ± 3 mL/min, the “Cardiac Output” value [3, 9] was 34 ± 3 mL/min and the “Coronary Flow” value [3, 9] was 20 ± 1 mL/min. The “HR × PSP” value [3, 9] was 19 ± 2 beats · min^−1 · mmHg · 10^−2, the “Heart Rate” value [3, 9] was 207 ± 12 beats · min^−1 and the “Peak Systolic Pressure” value [3, 9] was 93 ± 6 mmHg. The “recovery of cardiac function of previously ischemic hearts compared to control, in words” value ([3]; reperfusion period, FIG. 11, FIG. 17) was “significantly improves the recovery”, the “recovery of cardiac work of previously ischemic hearts compared to control, in words” value ([3]; reperfusion period, FIG. 12, FIG. 18) was “significantly improve the recovery” and the “recovery of oxygen consumption of previously ischemic hearts, in words” value ([3]; reperfusion period, FIG. 13, FIG. 19) was “significantly improve the recovery”. For the same molecule, the “glycolytic rates as compared to control, in words” value [4] was “neither DCA, digoxin, nor digoxin with DCA altered glycolytic rates”.
In the case of `COc1ccc([C@@H]2Sc3ccccc3N(CCN(C)C)C(=O)[C@@H]2OC(C)=O)cc1` [Diltiazem, diltiazem], the “glycolytic rates (glycolysis)” value (isolated rat hearts [1]) is reported as 0.727±0.160, the “Aortic Outflow” value (isolated rat hearts [2]; [7]) is reported as 21 ± 1 mL/min and the “Cardiac Efficiency (CW · O2^−1)” value (isolated rat hearts [2]; [7]) is reported as 1.63 ± 0.37. The “Cardiac Output” value (isolated rat hearts [2]; [7]) was 41 ± 1 mL/min, the “Cardiac Work (CO · PSP)” value (isolated rat hearts [2]; [7]) was 51 ± 1 and the “Coronary Flow” value (isolated rat hearts [2]; [7]) was 20 ± 1 mL/min. The “HR × PSP” value (isolated rat hearts [2]; [7]) was 25 ± 1 beats · min^−1 · mmHg · 10^−2, the “Heart Rate” value (isolated rat hearts [2]; [7]) was 202 ± 3 beats · min^−1 and the “O2 Consumption” value (isolated rat hearts [2]; [7]) was 38 ± 9 μmolO2 · g dry wt^−1 · min^−1. The “Peak Systolic Pressure” value (isolated rat hearts [2]; [7]) was 127 ± 4 mmHg, the “Aortic Outflow” value (isolated rat hearts [2]; [10]) was 21 ± 1 mL/min and the “Cardiac Work (CO · PSP)” value (isolated rat hearts [2]; [10]) was 51±1. The “HR × PSP” value (isolated rat hearts [2]; [10]) was 25±1 beats · min^−1 · mmHg · 10^−2, the “Heart Rate” value (isolated rat hearts [2]; [10]) was 202±3 beats · min^−1 and the “peak systolic pressure, effect in words” value ([5]; low flow demand ischemia, Table 1) was “decreased”. For the same molecule, the “Aortic Outflow” value [5, 11] was 22 ± 1 mL/min, the “Cardiac Output” value [5, 11] was 43 ± 1 mL/min and the “Coronary Flow” value [5, 11] was 21 ± 1 mL/min. The “HR × PSP” value [5, 11] was 28 ± 1 beats · min^−1 · mmHg · 10^−2, the “Heart Rate” value [5, 11] was 215 ± 6 beats · min^−1 and the “Peak Systolic Pressure” value [5, 11] was 131 ± 6 mmHg. For the same molecule, the “Aortic Outflow” value [5, 12] was 11 ± 4 mL/min, the “Cardiac Output” value [5, 12] was 24 ± 4 mL/min and the “Coronary Flow” value [5, 12] was 13 ± 1 mL/min. For the same molecule, the “HR × PSP” value [5, 12] was 28 ± 1 beats · min^−1 · mmHg · 10^−2, the “Heart Rate” value [5, 12] was 215 ± 6 beats · min^−1 and the “Peak Systolic Pressure” value [5, 12] was 131 ± 6 mmHg. The “cardiac function, in words” value ([5]; low-flow ischemic period, FIG. 23, FIG. 29) was “Neither diltiazem, DCA, nor DCA with diltiazem significantly affected” and the “glycolysis, in words” value [6] was “some attenuation”.
